This is an account of results in patent publication US9981950B2, “Triazoles as NR2B receptor inhibitors” (Janssen Pharmaceuticals, Inc., priority 2014, dated 2018).

The target of assay [1] is T1, rat NR1/NR2B receptor (Rattus norvegicus (Rat), UniProt P35439+Q00960). Put plainly: NR2B binding assay: inhibition of specific [3H]-Ifenprodil binding to the rat NR1/NR2B receptor. Conditions: rat brain membranes, Hill-plot 2-parameter-model. As to the method:
Inhibition of Specific Binding to the Rat NR1/NR2B Receptor
(§1) Male Wistar rats (180 to 200 g) were killed by suffocation in a CO2 chamber for two minutes. Whole brains without cerebellum were removed and dissected on ice, placed into closed vials and stored at −70° C.
Membrane fractions were prepared and tested using standard techniques. At the time of the assay, 1 g of the brains was placed into 25 ml of 50 mM Tris/10 mM EDTA buffer, pH 7.1, (25 vol. per g of original tissue) and homogenized for 30 sec at 20000 rpm with an Ultraturrax T25 (Jahnke & Kunkel, IKA-Labortechnik, Staufen, Germany). The homogenate was centrifuged at 4° C. for 10 min at 48000 g (OPTIMA L-70, Beckman, Palo Alto, Calif. 94304, USA).
The supernatant was discarded and the pellet was homogenized on ice for 30 sec at 20000 rpm with an Ultraturrax and again centrifuged at 48000 g for 30 minutes at 4° C. The resulted pellet was resuspended in 25 ml of 50 mM Tris/10 mM EDTA buffer, homogenized for 30 sec with an Ultraturrax, aliquoted, frozen at −70° C. and stored until use.
After thawing on the day of the assay, a 5 ml membrane aliquot was centrifuged at 48000 g for 30 min at 4° C. The pellet was resuspended in 5 ml of 5 mM Tris/1 mM EDTA buffer, pH 7.4, homogenized for 30 sec at 20000 rpm with an Ultraturrax and centrifuged at 48000 g for 30 min at 4° C. This was repeated twice. The final pellet was homogenized in 5 ml of 5 mM Tris/l mM EDTA buffer at 4° C. with an Ultraturrax and used for the Ifenprodil-binding assay as described in the following.
Nonspecific binding was estimated in the presence of […] CP101.606. The samples were incubated for 60 min. at 4° C.
The incubation was terminated by filtration of the membrane preparations using Filtermat B (Pharmacia, Uppsala Sweden) and a Micro Cell Harvester (Skatron, Lier, Norway). The Filtermat B had been presoaked with 1% polyethylene imine and carefully washed with 50 mM Tris/HCl-buffer pH 7.7 after the filtration to separate free and bound radioactivity.
The optimal amount of membrane preparation in the assay had been determined and optimized for each membrane preparation separately before the test.
For pipetting of the incubation mixture we routinely used the robot Biomek2000 (Fa. Beckman).
For determination of IC50 values the Hill-plot, 2-parameter-model was used.

In assay [2] the target is T1, rat NR1/NR2B receptor. Put plainly: RRNR2BB: inhibition of specific binding to the rat NR1/NR2B receptor. As to conditions: [3H]-Ifenprodil binding, rat brain membranes, Hill-plot 2-parameter-model. As to the method: RRNR2BB—Inhibition of Specific Binding to the Rat NR1/NR2B Receptor
as §1
Membrane fractions were prepared and tested using standard techniques. At the time of the assay, 1 g of the brains were placed into 25 ml of 50 mM Tris/10 mM EDTA buffer, pH=7.1, (25 vol. per g of original tissue) and was homogenized for 30 sec at 20000 U/min with an Ultraturrax T25 (Jahnke & Kunkel, IKA-Labortechnik, Staufen, Germany). The homogenate was centrifuged at 4° C. for 10 min at 48000 g (OPTIMA L-70, Beckman, Palo Alto, Calif. 94304, USA). The supernatant was discarded and the pellet was homogenized on ice for 30 sec at 20000 U/min with an Ultraturrax and again centrifuged at 48000 g for 30 minutes at 4° C. The resultant pellet was resuspended in 25 ml of 50 mM Tris/10 mM EDTA buffer, homogenized for 30 sec with an Ultraturrax, aliquoted, frozen at −70° C. and stored until use
After thawing on the day of the assay, a 5 ml membrane aliquote was centrifuged at 48000 g for 30 min at 4° C. The pellet was resuspended in 5 ml of 5 mM Tris/1 mM EDTA buffer, pH=7.4, homogenized for 30 sec at 20000 U/min with an Ultraturrax and centrifuged at 48000 g for 30 min at 4° C. This step was repeated twice. The final pellet was homogenized in 5 ml of 5 mM Tris/mM EDTA buffer at 4° C. with an Ultraturrax and used for the Ifenprodil-binding assay.
Nonspecific binding was estimated in the presence of 10 M CP101.606. The samples were incubated for 60 min. at 4° C.
Binding was terminated by filtration of the incubated membrane preparations using Filtermat B (Pharmacia, Uppsala Sweden) and a Micro Cell Harvester (Skatron, Lier, Norway). The Filtermat B had been presoaked with 1% polyethylenimine and carefully washed with […] Tris/HCl-buffer pH=7.7 after the filtration to separate free and bound radioactivity.
For pipetting of the incubation mixture the robot Biomek2000 (Fa. Beckman) was used.
The IC50 values in the tables below were determined using the Hill-plot, 2-parameter-model.

The next assay addresses hERG-receptor (Homo sapiens (Human), UniProt Q12809). Put plainly: HERGBD: inhibition of specific 3H-Dofetilide binding to the hERG-receptor. As to conditions: HEK cell membranes with human ERG, Hill-plot 2-parameter-model. As to the method:
Inhibition of Specific Binding to the hERG-Receptor (HERGBD)
A HEK cell line with stable transfected human ERG receptor was used for the assay. The cells were grown adherently and maintained in DULBECCOS' MEM medium with 10% FBS, 1% non-essential amino acids, 1% Penicillin/Streptomycin and 400 μg/ml G418 (Calbiochem).
For binding assays and membrane preparations the cell culture medium was removed, cells were washed with PBS. Crude membranes for radioligand binding experiments were prepared by scraping the cells off the dishes in ice cold 20 mM HEPES/0.1 mM KCl/pH 7.2. The cell suspension was homogenized on ice (Ultra turrax, 3×20 sec.) and the homogenate was spun for 10 min (1° C., 1000 g, OPTIMA, SW28, 2800 U/min). The supernatant was than centrifuged for 40 min at 100000 g (1° C., OPTIMA, SW28, 23000 U/min). The membrane pellet was resuspended in 20 mM HEPES/0.1 mM KCl/pH 7.2, frozen and stored at −80° C.
After thawing on the day of the assay, the membrane suspension was diluted further with 20 mM HEPES/0.1 mM KCl/pH 7.2.
The incubation mixture of 200 μl contained 1.5 nmol/l 3H-Dofetilide, optimized amount of membrane preparation, 20 mM HEPES/0.1 mM KCl/(pH 7.2) and inhibitor in 1% DMSO. Nonspecific binding was estimated in the presence of […] Dofetilide. The samples were incubated for 90 min. at RT.
Binding was terminated by filtration of the incubated membrane preparations using Filtermat B (Pharmacia, Uppsala Sweden) and a Micro Cell Harvester (Skatron, Lier, Norway). The Filtermat B had been presoaked with 1% polyethylenimine and carefully washed with 0.05 M Tris/HCl-buffer pH=7.7 after the filtration to separate free and bound radioactivity. The filters were counted in a scintillation counter (Betaplate 1205, Berthold, Wildbad, Germany) in order to determine the specific binding of [^3H]-Dofetilide.
The optimal amount of membrane preparation in the assay was determined and optimized for each membrane preparation separately in front of using the membranes in compound testing.
For pipetting of the incubation mixture we routinely use the robot Biomek2000 (Fa. Beckman).
For orientation: The hERG channel carries a current that helps repolarise heart muscle cells.

Structures are written as SMILES.

Sequence of hERG-receptor (Q12809 whole entry): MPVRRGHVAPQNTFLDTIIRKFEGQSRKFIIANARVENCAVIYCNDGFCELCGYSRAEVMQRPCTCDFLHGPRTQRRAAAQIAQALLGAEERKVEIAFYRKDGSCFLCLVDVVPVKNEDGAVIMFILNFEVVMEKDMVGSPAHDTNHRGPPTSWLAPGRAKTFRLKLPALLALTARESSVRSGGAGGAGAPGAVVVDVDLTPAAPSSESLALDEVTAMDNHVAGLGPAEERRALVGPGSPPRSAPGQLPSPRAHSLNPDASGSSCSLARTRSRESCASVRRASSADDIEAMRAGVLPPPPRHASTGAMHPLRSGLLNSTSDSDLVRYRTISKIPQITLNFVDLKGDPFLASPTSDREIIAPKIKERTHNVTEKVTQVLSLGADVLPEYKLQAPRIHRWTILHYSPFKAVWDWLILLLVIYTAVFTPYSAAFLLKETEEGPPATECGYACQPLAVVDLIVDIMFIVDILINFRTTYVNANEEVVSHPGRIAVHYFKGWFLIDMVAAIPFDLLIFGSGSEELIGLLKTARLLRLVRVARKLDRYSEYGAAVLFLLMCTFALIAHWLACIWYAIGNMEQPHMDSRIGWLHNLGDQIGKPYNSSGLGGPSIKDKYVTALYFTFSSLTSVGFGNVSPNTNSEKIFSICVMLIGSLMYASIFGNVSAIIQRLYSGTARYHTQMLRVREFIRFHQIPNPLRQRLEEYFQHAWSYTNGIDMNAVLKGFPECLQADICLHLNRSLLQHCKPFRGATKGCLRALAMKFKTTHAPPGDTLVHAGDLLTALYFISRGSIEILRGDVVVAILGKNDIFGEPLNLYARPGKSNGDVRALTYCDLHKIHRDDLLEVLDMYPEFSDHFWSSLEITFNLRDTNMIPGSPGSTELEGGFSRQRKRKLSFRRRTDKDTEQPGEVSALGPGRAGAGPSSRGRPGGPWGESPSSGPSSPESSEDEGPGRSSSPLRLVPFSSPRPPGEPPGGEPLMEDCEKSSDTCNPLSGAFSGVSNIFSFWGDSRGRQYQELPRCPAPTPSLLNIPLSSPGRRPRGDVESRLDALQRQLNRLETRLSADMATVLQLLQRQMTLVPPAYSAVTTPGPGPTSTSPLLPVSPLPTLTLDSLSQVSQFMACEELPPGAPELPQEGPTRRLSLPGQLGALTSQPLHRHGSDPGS
T1 sequence (Q00960 27-1482, other chains not shown): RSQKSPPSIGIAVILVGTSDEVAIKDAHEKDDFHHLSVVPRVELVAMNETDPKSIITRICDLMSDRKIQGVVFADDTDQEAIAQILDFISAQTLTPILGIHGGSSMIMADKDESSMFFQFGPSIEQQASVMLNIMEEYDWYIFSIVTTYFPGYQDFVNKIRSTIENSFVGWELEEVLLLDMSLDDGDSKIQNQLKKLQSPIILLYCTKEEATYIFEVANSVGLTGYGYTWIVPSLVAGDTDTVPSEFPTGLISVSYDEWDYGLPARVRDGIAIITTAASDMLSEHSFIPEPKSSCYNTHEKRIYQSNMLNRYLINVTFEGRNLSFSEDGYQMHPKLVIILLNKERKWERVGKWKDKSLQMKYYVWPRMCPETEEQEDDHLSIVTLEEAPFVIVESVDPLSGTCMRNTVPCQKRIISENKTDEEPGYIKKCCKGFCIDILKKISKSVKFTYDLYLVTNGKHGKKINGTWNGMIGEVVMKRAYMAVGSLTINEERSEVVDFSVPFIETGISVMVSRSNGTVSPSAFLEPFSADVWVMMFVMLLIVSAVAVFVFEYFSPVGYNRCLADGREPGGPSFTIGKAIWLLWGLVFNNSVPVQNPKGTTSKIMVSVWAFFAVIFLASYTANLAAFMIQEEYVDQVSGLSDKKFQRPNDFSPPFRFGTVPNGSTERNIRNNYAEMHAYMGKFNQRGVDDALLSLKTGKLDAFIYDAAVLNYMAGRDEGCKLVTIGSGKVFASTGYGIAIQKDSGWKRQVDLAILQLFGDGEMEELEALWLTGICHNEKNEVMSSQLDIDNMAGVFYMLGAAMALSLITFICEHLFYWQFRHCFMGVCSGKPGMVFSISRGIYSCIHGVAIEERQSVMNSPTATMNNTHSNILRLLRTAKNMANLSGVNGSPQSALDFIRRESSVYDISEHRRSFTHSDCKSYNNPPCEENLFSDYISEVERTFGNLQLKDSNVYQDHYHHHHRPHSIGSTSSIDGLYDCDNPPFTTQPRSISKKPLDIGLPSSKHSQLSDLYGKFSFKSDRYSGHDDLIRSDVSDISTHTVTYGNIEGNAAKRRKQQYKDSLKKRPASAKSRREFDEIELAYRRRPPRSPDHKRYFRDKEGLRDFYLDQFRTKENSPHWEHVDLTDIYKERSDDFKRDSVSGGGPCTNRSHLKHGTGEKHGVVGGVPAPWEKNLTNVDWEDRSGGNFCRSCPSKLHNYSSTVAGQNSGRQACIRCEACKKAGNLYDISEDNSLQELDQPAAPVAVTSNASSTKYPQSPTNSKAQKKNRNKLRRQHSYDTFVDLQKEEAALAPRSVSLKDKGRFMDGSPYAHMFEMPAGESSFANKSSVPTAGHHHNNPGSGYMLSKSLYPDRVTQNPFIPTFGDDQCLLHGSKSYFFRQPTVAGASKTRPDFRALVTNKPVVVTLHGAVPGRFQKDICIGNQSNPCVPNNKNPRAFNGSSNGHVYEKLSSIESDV

What is called IC50 is the point on the concentration scale where inhibition reaches its midpoint. Read a low IC50 as higher potency. In the case of `Cc1ncnn1Cc1cn(-c2ccc(Cl)cc2)nn1` [Example 8, 1-(4-Chloro-phenyl)-4-(5-methyl-[1,2,4]triazol-1-ylmethyl)-1H-[1,2,3]triazole], the IC50 at rat NR1/NR2B receptor [1] turned out to be 14300 nM; at rat NR1/NR2B receptor [2], 14300 nM; on hERG-receptor, 48900 nM.

For `Clc1ccc(-n2cc(Cn3ncnc3C3CCCC3)nn2)cc1` [Example 14, 1-(4-Chloro-phenyl)-4-(5-cyclopentyl-[1,2,4]triazol-1-ylmethyl)-1H-[1,2,3]triazole], the IC50 turned out to be 12500 nM at rat NR1/NR2B receptor [1], 12500 nM at rat NR1/NR2B receptor [2] and 30500 nM at hERG-receptor.

As for `CCCc1nccn1Cc1cn(-c2ccc(Cl)cc2)nn1` [Example 18, 1-(4-Chloro-phenyl)-4-(2-propyl-imidazol-1-ylmethyl)-1H-[1,2,3]triazole], the figures for the concentration for half-maximal inhibition (IC50) at rat NR1/NR2B receptor [1], on rat NR1/NR2B receptor [2] and at hERG-receptor were 46.6 nM, 46.6 nM and 2230 nM, respectively.

For `CC(C)(C)c1ncnn1Cc1cn(-c2ccc(Cl)cc2)nn1` [Example 19, 4-(5-tert-Butyl-[1,2,4]triazol-1-ylmethyl)-1-(4-chloro-phenyl)-1H-[1,2,3]triazole], the results for the concentration for half-maximal inhibition (IC50) at rat NR1/NR2B receptor [2] and at hERG-receptor were above 10000 nM and 33800 nM, respectively.

As to `CC(C)(C)c1ncn(Cc2cn(-c3ccc(Cl)cc3)nn2)n1` [Example 20, 4-(3-tert-Butyl-[1,2,4]triazol-1-ylmethyl)-1-(4-chloro-phenyl)-1H-[1,2,3]triazole], the values for the IC50 on rat NR1/NR2B receptor [2] and on hERG-receptor were above 10000 nM and 35600 nM, respectively.

`Cc1nc(C2CCC2)n(Cc2cn(-c3ccc(Cl)cc3)nn2)n1` [Example 21, 1-(4-Chloro-phenyl)-4-(5-cyclobutyl-3-methyl-[1,2,4]triazol-1-ylmethyl)-1H-[1,2,3]triazole]: the figures for the 50% inhibitory concentration (IC50) on rat NR1/NR2B receptor [2] and at hERG-receptor were above 10000 nM and 3520 nM, respectively.

In the case of `Cc1nccn1Cc1cn(-c2ccc(Cl)cc2)nn1` [Example 24, 1-(4-Chloro-phenyl)-4-(2-methyl-imidazol-1-ylmethyl)-1H-[1,2,3]triazole], the IC50 on rat NR1/NR2B receptor [1] amounted to 38.4 nM; at rat NR1/NR2B receptor [2], 38.4 nM; at hERG-receptor it was 5640 nM.

Take `CCCCc1nccn1Cc1cn(-c2ccc(Cl)cc2)nn1` [Example 27, 4-(2-Butyl-imidazol-1-ylmethyl)-1-(4-chloro-phenyl)-1H-[1,2,3]triazole]: the IC50 on rat NR1/NR2B receptor [1] worked out at 38.9 nM; at rat NR1/NR2B receptor [2], 38.9 nM; at hERG-receptor, 570 nM.

For `OCc1nccn1Cc1cn(-c2ccc(Cl)cc2)nn1` [Example 28, 4-(2-Hydroxymethyl-imidazol-1-ylmethyl)-1-(4-chloro-phenyl)-1H-[1,2,3]triazole], the values for the IC50 on rat NR1/NR2B receptor [1], at rat NR1/NR2B receptor [2] and on hERG-receptor were 573 nM, 573 nM and 11200 nM, respectively.

Take `Cc1nncn1Cc1cn(-c2ccc(Cl)cc2)nn1` [Example 31, 1-(4-Chloro-phenyl)-4-(3-methyl-[1,2,4]triazol-4-ylmethyl)-1H-[1,2,3]triazole]: the IC50 at rat NR1/NR2B receptor [2] was above 10000 nM; on hERG-receptor it was 22400 nM.

For the molecule `Cc1nccn1Cc1cn(-c2ccc(Cl)c(Cl)c2)nn1` [Example 32, 1-(3,4-Dichloro-phenyl)-4-(2-methyl-imidazol-1-ylmethyl)-1H-[1,2,3]triazole], the values for the half-inhibitory concentration (IC50) on rat NR1/NR2B receptor [1], on rat NR1/NR2B receptor [2] and on hERG-receptor were 4.92 nM, 4.92 nM and 3930 nM, respectively.

As for `CCc1nccn1Cc1cn(-c2ccc(Cl)c(Cl)c2)nn1` [Example 33, 1-(3,4-Dichloro-phenyl)-4-(2-ethyl-imidazol-1-ylmethyl)-1H-[1,2,3]triazole], the IC50 at rat NR1/NR2B receptor [1] amounted to 4.65 nM; at rat NR1/NR2B receptor [2], 4.65 nM; on hERG-receptor it was 2230 nM.

For the molecule `CCCc1nccn1Cc1cn(-c2ccc(Cl)c(Cl)c2)nn1` [Example 34, 1-(3,4-Dichloro-phenyl)-4-(2-propyl-imidazol-1-ylmethyl)-1H-[1,2,3]triazole], the results for the IC50 on rat NR1/NR2B receptor [1], on rat NR1/NR2B receptor [2] and on hERG-receptor were 7.67 nM, 7.67 nM and 1120 nM, respectively.

Regarding `CC(C)c1nccn1Cc1cn(-c2ccc(Cl)c(Cl)c2)nn1` [Example 35, 1-(3,4-Dichloro-phenyl)-4-(2-isopropyl-imidazol-1-ylmethyl)-1H-[1,2,3]triazole], the IC50 on rat NR1/NR2B receptor [1] was determined as 7.4 nM; on rat NR1/NR2B receptor [2] it was 7.4 nM; on hERG-receptor, 5880 nM.

Turning to `Clc1ccc(-n2cc(Cn3ccnc3C3CC3)nn2)cc1Cl` [Example 36, 4-(2-Cyclopropyl-imidazol-1-ylmethyl)-1-(3,4-dichloro-phenyl)-1H-[1,2,3]triazole], the IC50 was determined as 17.9 nM on rat NR1/NR2B receptor [1], 17.9 nM on rat NR1/NR2B receptor [2] and 1160 nM at hERG-receptor.

In the case of `CCCCc1nccn1Cc1cn(-c2ccc(Cl)c(Cl)c2)nn1` [Example 37, 4-(2-Butyl-imidazol-1-ylmethyl)-1-(3,4-dichloro-phenyl)-1H-[1,2,3]triazole], the IC50 on rat NR1/NR2B receptor [1] stood at 6.84 nM; at rat NR1/NR2B receptor [2], 6.84 nM; on hERG-receptor, 585 nM.

On to `Cc1nc(C)n(Cc2cn(-c3ccccc3)nn2)n1` [Example 46, 4-(3,5-Dimethyl-[1,2,4]triazol-1-ylmethyl)-1-phenyl-1H-[1,2,3]triazole], for which the figures for the IC50 on rat NR1/NR2B receptor [2] and on hERG-receptor were above 10000 nM and 7580 nM, respectively.

For `CC(F)(F)c1cc(-n2cc(Cn3ccnc3CCO)nn2)ccc1F` [Example 106, 1-[3-(1,1-Difluoro-ethyl)-4-fluoro-phenyl]-4-[2-(2-hydroxy-ethyl)-imidazol-1-ylmethyl]-1H-[1,2,3]triazole], the concentration for half-maximal inhibition (IC50) on rat NR1/NR2B receptor [1] and on rat NR1/NR2B receptor [2] was 8.08 nM each time.
